In patent US8263757B2, “Promiscuous HER-2/Neu CD4 T cell epitopes” (Dendreon Corporation, priority 2006, dated 2012):

Legend:
[1] = system: T cell clone HER500.23c21; test: Epitope mapping of clone HER500.23c21 with individual HER500 15-mer peptides and autologous EBV-LcL (IFNγ ELISA, IL-2 by HT-2 proliferation); assay type: cell-based, human; settings: each peptide 1 ug/ml; autologous EBV LCL cells as antigen presenting cells
Method: FIG. 2. T cell clone HER500.23.21 is specific for Peptide #63 (HERp270-284). The HER-2/neu epitope was mapped for clone HER500.23.21 and specificity was determined using autologous EBV-LcLs and each individual HER500 peptide #1-125 (15 amino acids in length). The assay was set up in 96 well round bottom plates with autologous EBV-LcLs at 2×10^5 cells/well and the T cell clone HER500.23.21 added at 1×10^5 cells/well. Each peptide was used at a final concentration of 1 ug/mL. The assay was incubated at 37° C. with 5% CO2 for 48 hours at which time supernatant was removed to test for cytokine production. (A) IFNγ production by clone HER500.23.21 was measured using ELISA, calculated pg/mL is shown for each HER500 peptide. (B) IL-2 production was measured using HT-2 cell proliferation.
Identification and Characterization of HER-2/neu specific T cell clones. […]
Cytokine Production. […] IL-2 production was measured using the IL-2 dependent line HT-2 (ATCC). […] TdR was added for the final 6 hours of the assay and plates were harvested to glass fiber filter mats and DNA incorporation of the radioisotope, or proliferative response, was determined by counts per minute using a liquid scintillation counter (PerkinElmer Life and Analytical Sciences, Inc. Boston, Mass.). IFNγ production was measured using anti-human IFNγ antibody pairs for ELISA (BD Pharmingen, San Diego, Calif.). […]

[2] = system: T cell clone HER500.23c21; test: HLA-DR restriction: blocking anti-MHC class II antibodies in HERp270-284 stimulation of HER500.23c21 (IFNγ ELISA); assay type: cell-based, human; settings: antibody blocking with anti-HLA-DR and anti-HLA-DP/-DQ
Method: FIG. 3. HLA-DR Restriction. Autologous EBV-LcL at 2×10^5 cells/mL and HERp270-284 was used to stimulate the T cell clone HER500.23c21 (1×10^5 cells/well), with and without the addition of blocking anti-MHC class II antibodies. Anti-HLA-DR ♦ and anti-HLA-DQ/anti-HLA-DP ▪ were titrated at the concentrations shown in cRPMI+10% FBS. Wells also contained EBV-LcLs, HER500.23c21T cell clone and peptide (1 μg/mL). Assay was incubated for 48 hours at 37° C. with 5% CO2. Supernatants were harvested and frozen at −20° C. and at a later date, analyzed for IFNγ production using ELISA. Multiple experiments were performed, mean triplicate values for one representative experiment is shown.
HLA-DR Restriction and Promiscuity. To determine HLA-DR restriction of the T cell epitope HERp270-284, anti-HLA-DR mAb L243, HLA-DQ mAb 1a3 or HLA-DP mAb B7/21 (20-1.25 μg/mL) were cultured with T cell clone HER.23c21, peptide HERp270-284 and autologous EBV-LcL in cRPMI+10% FBS media. Supernatants were harvested after 48 hours and tested for IL-2 and IFNγ production. […]
In order to determine which HLA molecules were responsible for presenting HERp270-284 to HER500.23c21, HLA-blocking antibodies were used to inhibit presentation and T cell activation. […] T cell stimulation was determined by IFNγ production.

## ALVTYNTDTFESMPN (HER-2/Neu peptide 270-284, HER500 peptide #63, HERp270-284, HER-2/Neu epitope 270-284, residues 3-17 of SEQ ID NO1) [Peptide 63]
[1]
  response of HER500.23c21 measured by IFNγ or IL2 production: responded to only one individual peptide
[2]
  HLA restriction of HER500.23c21 recognition: HLA-DR restricted
